Results taken from patent US20230263774A1, “OPTIMIZED SURGERY PROTOCOL AND KITS” (Steadman Philippon Research Institute, priority 2020, published 2023).
“Also recorded” adds a separate entry of the source. One block for each compound: values may come before it.

Experiments:
Z24−/− mice = assay: Senolytic treatment of progeroid Z24−/− mice, articular cartilage degeneration / OA; type: in vivo; details: for incidence/severity of age-related disorders including osteoarthritis (OA): progeroid mice accelerated aging model
Source text: The Zmpste24−/− (Z24−/−) model of Hutchinson-Gilford Progeria Syndrome (HGPS) was used to model not only HGPS musculoskeletal decline, but also as a pre-clinical aging model due to its predictable and accelerated aging phenotypes. Z24−/− animals are short lived (˜6 months) and have severe musculoskeletal abnormalities including weight loss, dystonia, sarcopenia, osteoporosis and as reported herein, early signs of bone loss and spontaneous osteoarthritis (OA).
As a proof of concept for the potential of senolytics to reduce AC degeneration, a pilot study was conducted with Dasatinib+Quercitin (D/Q; 5 mg/kg; 50 mg/kg). Z24−/− mice were administered D/Q via oral gavage as a single dose (D/Qsin) at 4 months of age, or monthly dose starting at 2 months of age (D/Qmul) prior to sacrifice at 5 months.

[1] = system: human adipose-derived stem cells (ADSCs); assay: Senescent cells in culture-expanded adipose-derived stem cells, staining for senescence-associated heterochromatin foci (H2AX, H3K9); type: cell-based
Source text: In preliminary experiments (FIG. 4), pre-existing senescent cells were found in cultured human adipose-derived stem cells (ADSCs). The ability of these cells to produce SASPs can induce significant damage to other stem cells or endogenous cells once re-administered into the intra-articular space. Thus, avoiding the proliferation of senescent cells from long-term expansion is critical to prevent these cells from compromising the ability of adult stem cells to repair cartilage. […] ADSCs from a young person (YF) and old person (OF) were cultured to passage 4 using normal proliferation media (DMEM/F-12, 10% FBS, 1% penicillin/streptomycin). The cells were subsequently treated with 50 μM of Fisetin for 24 hours and then cultured for 48 hours. Senescent cells were identified using antibodies for senescence-associated heterochromatin foci. […] These experiments support that Fisetin can eliminate senescent cells and SASPs in expanded stem cell populations, and this may apply to harvested tissues such as BMC from older OA patients that likely contain senescent cells (see FIGS. 2A-4, above).

[2] = system: osteochondral defect in the patellar groove of New Zealand White rabbits; assay: Rabbit osteochondral defect + bone marrow stimulation (BMS) with oral Fisetin, oral Losartan and/or BMAC; type: in vivo; details: for Microscopic evaluation and micro-CT: 12 weeks postoperatively, with or without BMAC, preliminary; for healing capacity of BMS-mediated osteochondral defects: compared with BMS alone, preliminary results
Description: Bone Marrow Collection and BMAC Processing for Autologous Transplant: New Zealand White rabbits were anesthetized to collect bone marrow aspirate (BMA) using an 18 G heparinized spinal needle through both iliac crests simultaneously by two surgeons for the purpose of preparing bone marrow aspirate concentrate (BMAC). Bone marrow samples were collected in 10 ml syringes containing ACD-A as an anticoagulant (˜1.5 ml of ACD-A per 10 ml sample), processed under sterile BSCs, and a benchtop centrifuge was used to prepare BMACs. Filters were also used for BMA prior to processing into BMACs. These procedures were performed under sterile conditions.
A 5 mm diameter osteochondral defect was created in the patellar groove of bilateral knees for 64 New Zealand White rabbits (128 knees). Under a sterile technique, a midline 3 cm incision was made in a knee flexed at approximately 30° and approached intra-articularly through a medial parapatellar incision. The patella was dislocated, and a 5 mm diameter osteochondral defect was created in the patellar groove (depth: 2 mm), followed by BMS. To allow bone marrow MSCs to be introduced into the defect space, five equally spaced holes of 2 mm depth were drilled into the subchondral bone using a 0.7 mm burr. […] Once the creation of the osteochondral defect and the BMS procedure was completed, the joint capsule was closed and 0.5 ml of BMAC was injected into the joint cavity of the left knee.
(§1) Post-surgical evaluations were to be conducted at two time points: 6 & 12 weeks. Autologous BMAC was injected into the unilateral knee joint cavity immediately after surgery, with no BMAC injection on the other side. Each rabbit was orally treated with Fisetin, Losartan, or a combination of the two biologics from the day after surgery until the day of euthanasia, for comparison with the untreated group. Rabbits were sacrificed 6 weeks or 12 weeks postoperatively. The experimental groups were as follows (N-8 per group): 1) OD+BMS; 2) OD+BMS+oral Fisetin; 3) OD+BMS+oral Losartan; 4) OD+BMS+oral Fisetin+oral Losartan; 5) OD+BMS+BMAC; 6) OD+BMS+BMAC+oral Fisetin; 7) OD+BMS+BMAC+oral Losartan; and 8) OD+BMS+[…].

[3] = system: Superoxide Dismutase 1 (SOD1); assay: qPCR gene expression analysis of synovium harvested from the knee joint (rabbit OD + BMS study); type: in vivo, New Zealand White rabbits; details: Fisetin-treated group vs control group (p<0.01)
Description: as §1

[4] = system: PBMCs from fresh human peripheral blood; assay: Fisetin treatment of isolated PBMCs, C12FDG / DRAQ7 flow cytometry; type: cell-based
Source text: A flow cytometry-based approach to assess senescent total PBMCs from fresh human peripheral blood was optimized. Cells were identified using FSC and SSC controls (FIG. 19A), while senescent cells, or C12FDG+ events, were identified with an emission of 514 nm (green channel).
To examine cellular phenotypes of C12FDG-stained cells, low, moderate, and high populations were sorted using FACS for two study participants (FIG. 20A). […] Using the same methodology, the rate and senolytic efficacy of Fisetin treatment were determined on PBMCs directly at 1, 4, 18, and 24 hr timepoints. […] Furthermore, the rate of senolytic activity of Fisetin was faster versus other known senotherapeutic drugs such as metformin, dasatinib, or quercetin (FIG. 21D).
Thus, it was next tested whether the reduction of highly senescent cells by Fisetin was associated with co-incident cell death. To this end, cells were co-stained with the viability stain DRAQ7.

[5] = system: senescent CD3+ T-Cells and plasma biomarkers; assay: Single case: patient on Fisetin, senescent CD3+ T-Cells (C12FDG) and plasma biomarkers; type: in vivo, human; details: 150 days of Fisetin 100 mg/day
Description: Another flow cytometry-based approach was optimized to assess senescent total PBMCs and CD3+ T-Cells from fresh human peripheral blood. For this approach, T-Cells were isolated from PBMCs, washed, then stained with the senescence marker C12FDG for 1 hr, and then used for flow cytometry analysis. Cells were identified using FSC and SSC controls, while senescent cells, or C12FDG+ events, were identified with an emission of 514 nm (green channel).
Thus, it was tested whether Fisetin could reduce senescent T-Cells and plasma biomarkers for OP in a single patient enrolled in the study that disclosed Fisetin use between blood draws. […] This was commensurate with a reduction in OP markers OPG, OPN, and SOST in addition to the pro-inflammatory SASP marker TNF-α (FIG. 25B). […] In addition, in a single case study, C12FDG staining was sensitive enough to detect reductions in senescent T-Cells associated with reduction in OP and SASP biomarkers following Fisetin therapy.

[6] = system: bone marrow mesenchymal stem cells (BM-MSCs); assay: Senescent cells in bone marrow mesenchymal stem cells after Fisetin, C12FDG flow cytometry; type: cell-based, human; details: 33 μM Fisetin 24 hours, passage 3
Description: Reduction in senescent cells in BMSCs after senolytic treatment: To determine a reduction in senescent cells in bone marrow stem cells after senolytic therapy, approximately 5 mL of bone marrow concentrate were obtained from a person. The BMC samples were immediately processed further to isolate the mononuclear layer and plated in a T25 flask to expand BM-MSCs. Bone marrow cells were pre-plated for 3-weeks in basal culture medium (CM) and passaged with CM+Fibroblast Growth Factor (FGF) to expand bone marrow mesenchymal stem cells (BM-MSCs). At passage 3, confluent BM-MSCs were treated with CM+FGF, 33 μM of DMSO, or 33 μM of Fisetin+GM+FGF for 24-hours in a 12-well plate. Then, […] of bafilomycin (inhibits lysosomal acidification) and […] of C12FDG (senescent label) were used to assess senescence via flow cytometry. In BM-MSCs at passage 3, the number of senescent in the Fisetin treated BM-MSCs was reduced by approximately 24% compared to the DMSO treated BM-MSCs, and approximately a 5% reduction of senescent cells was observed when compared to control BM-MSCs (FIG. 27).

[7] = system: osteochondral defect in the patellar groove of New Zealand White rabbits; assay: Rabbit osteochondral defect model, microfracture plus oral Losartan; type: in vivo
Description: An osteochondral defect (diameter: 5 mm, depth: 2 mm) was made in the patellar groove of 48 New Zealand White rabbits. The rabbits were divided into 3 groups (8/group/time point): control (osteochondral defect only), microfracture (defect+microfracture), and Losartan (defect+microfracture+Losartan). For the Losartan group, a dose of 10 mg/kg/day of Losartan was orally administrated by mixing with the chew treat daily.

[8] = system: osteochondral defect in the patellar groove of New Zealand White rabbits; details: 6 weeks after surgery; Losartan 10 mg/kg/day oral; cited from earlier work

Structure (SMILES): O=c1c(O)c(-c2ccc(O)c(O)c2)oc2cc(O)cc(O)c12 [Quercetin]
incidence/severity of age-related disorders including osteoarthritis (OA) (Z24−/− mice): can reduce

expression level of Superoxide Dismutase 1 (SOD1) in the synovium [3]: significantly higher
Structure (SMILES): O=c1c(O)c(-c2ccc(O)c(O)c2)oc2cc(O)ccc12 [Fisetin, 2-(3,4-dihydroxyphenyl)-3,7-dihydroxychromen-4-one]
number of senescent cells in the expanded ADSCs in vitro ([1]; 50 μM Fisetin for 24 hours, then cultured 48 hours, passage 4 ADSCs from young and old female): significantly reduced
-H2AX and H3K9 in Adipose Derived Stem Cells ([1]; FIG. 4, senescence quantified by H2AX and H3K9 staining): reduces
articular cartilage degeneration (Z24−/− mice; murine model of natural and accelerated (progeria) aging): delay
incidence/severity of age-related disorders including osteoarthritis (OA) (Z24−/− mice): can reduce
Macroscopic assessment, gross images compared to the control group ([2]; 6 weeks postoperatively, control = BMS, without medication, without BMAC): significant improvement
Microscopic evaluation and micro-CT [2]: trend toward improvement
healing capacity of BMS-mediated osteochondral defects [2]: enhanced
time of maximum reduction of high senescent cells ([4]; Fisetin on PBMCs directly): 4 h
time to significant reduction of high senescent cells ([4]; Fisetin on PBMCs directly): ≤ 1 h
high senescent cell counts and percent senescent cells ([4]; Fisetin on PBMCs directly, timepoints 1, 4, 18, 24 hr): significantly reduced
DRAQ7+ cells (cell death) with decrease in highly senescent cells ([4]; co-stained with viability stain DRAQ7, 1 and 4 hrs): concomitant increases
effect on highly senescent cells vs moderately senescent cells ([4]; isolated PBMCs (FIG. 22D)): primarily affect only highly senescent cells and not moderately senescent cells; also recorded: selectively kills highly senescent cells
rate of senolytic activity ([4]; versus metformin, dasatinib, or quercetin (FIG. 21D)): faster
levels of moderately and highly senescent CD3+ T-Cells [5]: reduces
OP marker OPG in plasma ([5]; pre- vs. post-Fisetin): reduction
OP marker OPN in plasma ([5]; pre- vs. post-Fisetin): reduction
OP marker SOST in plasma ([5]; pre- vs. post-Fisetin): reduction
pro-inflammatory SASP marker TNF-α in plasma ([5]; pre- vs. post-Fisetin): reduction
reduction of number of senescent cells in BM-MSCs ([6]; compared to DMSO treated BM-MSCs): approximately 24%
reduction of senescent cells in BM-MSCs ([6]; compared to control BM-MSCs (CM+FGF)): approximately 5%

Structure (SMILES): CO[C@H]1/C=C\C=C(/C)C(=O)NC2=CC(=O)C(NCCN(C)C)=C(C[C@@H](C)C[C@H](OC)[C@H](O)[C@@H](C)/C=C(\C)[C@@H]1OC(N)=O)C2=O [Alvespimycin]
incidence/severity of age-related disorders including osteoarthritis (OA) (Z24−/− mice): can reduce

Structure (SMILES): CCCCc1nc(Cl)c(CO)n1Cc1ccc(-c2ccccc2-c2nn[nH]n2)cc1 [Losartan]
ICRS macroscopic score ([7]; 12 weeks, Losartan 10 mg/kg/day oral + microfracture): 11.7±0.5
modified O'Driscoll score (based on Safranin O staining) compared to the other 2 groups ([7]; Losartan 10 mg/kg/day oral + microfracture): significantly higher
Immunohistochemistry staining of cartilage (Col2) ([7]; Losartan treatment group): nearly normal structure with hyaline-like column-arranged chondrocytes
Microscopic evaluation and micro-CT [2]: trend toward improvement
healing capacity of BMS-mediated osteochondral defects [2]: enhanced
articular cartilage repair compared to microfracture or control groups [8]: significantly improved
